According to US8859232B2, “Genetically encoded photomanipulation of protein and peptide activity” (The University of North Carolina at Chapel Hill, priority 2009, dated 2014):

System: MEF cells expressing mVenus-tagged PA-Rac1
Assay: Inhibitor studies: localized activation of PA-Rac1 in inhibitor-treated MEF cells
Format: cell-based, mouse
Details: Blebbistatin 1 μM, Y-27632 10 μM; for effect of inhibitor on PA-Rac1 light-induced protrusion: FIG. 6C; for effect of inhibitor on the ability of Rac1 to specify the direction of movement: FIG. 6D
Procedure: Inhibitor studies: MEF cells expressing mVenus-tagged PA-Rac1 were incubated with 1 μM myosin II inhibitor Blebbistatin, 1 μM MLCK inhibitor ML-7, or 10 μM ROCK inhibitor Y-27632 (Calbiochem). Cells underwent the cell shape changes previously described (Katsumi et al., J. Cell Biol. 158:153 (2002)) and then reached a stable state within 30 minutes. After this cells were irradiated with the 458 nm laser at a 10-μm spot to induce PA-Rac activation.
Protrusion/retraction analysis: Fluorescence images of MEF cells expressing mVenus-tagged PA-Rac1 and its mutants were masked based on intensity thresholding to produce binary images. Regions of protrusion were isolated by subtracting the binary image at a given time point from that at time 0. Conversely the binary images of retraction were obtained. Areas not part of protrusions or retractions, those that overlapped the time 0 image, were obtained by subtracting the above two images from that at time 0. Each binary image was assigned a different color: red=protrusion, blue=retraction, green=area overlapping with time 0, and white=background. These operations were carried out using MetaMorph software.
Polarity index calculation: To obtain the polarity index (cos θ) of the migrating MEF cells, X and Y coordinates were obtained for the centroid before movement (x0,y0), the centroid after movement (x1,y1), and for the center of the irradiation spot (x2,y2), using MetaMorph software. The cos and sin values of the angles were obtained using simple triangle calculations. First two angles were defined using an arbitrarily selected horizontal line θ1=angle between the arbitrary line and the line from (x0,y0) to (x1,y1), and θ2=angle between the arbitrary line and the line between (x0,y0) and (x2,y2). The cos used to characterize polarity (see FIG. 6) was obtained using the following formula: cos θ=cos(θ1−θ2)=cos θ1 cos θ2+sin θ1 sin θ2

Compound | effect of inhibitor on PA-Rac1 light-induced protrusion | effect of inhibitor on the ability of Rac1 to specify the direction of movement
Cc1ccc2c(c1)C(=O)C1(O)CCN(c3ccccc3)C1=N2 (stereo not shown) [Blebbistatin] | little effect | randomization of movement
C[C@@H](N)[C@H]1CC[C@H](C(=O)Nc2ccncc2)CC1 [Y-27632] | strongly reduced protrusion | little effect
